Source: paper PMC12449377, “Psychedelic-like effects induced by 2,5-dimethoxy-4-iodoamphetamine, lysergic acid diethylamide, and psilocybin in male and female C57BL/6J mice” (Psychopharmacology, 2025)

Tests used:
5-HT1A = target: T1, 5-HT1A (Mus musculus, UniProt Q64264); experiment: Competition binding vs [3H]8-OH-DPAT in mouse brain membranes
T1 construct: tissue BioIVT; host or cells: whole C57BL/6 mouse brain minus cerebellum, male and female
T1 sequence (Q64264 1-421): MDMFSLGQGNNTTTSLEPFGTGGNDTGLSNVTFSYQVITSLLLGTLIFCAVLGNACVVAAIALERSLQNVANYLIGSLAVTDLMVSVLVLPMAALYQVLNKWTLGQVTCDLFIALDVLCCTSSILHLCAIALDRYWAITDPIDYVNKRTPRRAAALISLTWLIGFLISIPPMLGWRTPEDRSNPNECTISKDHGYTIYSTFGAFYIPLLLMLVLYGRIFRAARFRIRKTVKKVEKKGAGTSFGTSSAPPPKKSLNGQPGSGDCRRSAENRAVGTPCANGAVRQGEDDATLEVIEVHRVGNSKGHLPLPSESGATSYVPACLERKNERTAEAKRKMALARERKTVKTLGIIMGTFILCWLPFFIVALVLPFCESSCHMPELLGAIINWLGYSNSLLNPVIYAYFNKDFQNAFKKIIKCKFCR
Protocol: Competition binding studies were conducted in mouse brain tissue as previously described (Glatfelter et al. [2022b]). Briefly, the experiments utilized membranes prepared from whole C57BL/6 mouse brain minus cerebellum (BioIVT, Westbury, NY, USA). […] We assessed the ability of test drugs to compete for [^3H]M100907 binding at 5-HT2A (1 nM) or [^3H]8-OH-DPAT binding at 5-HT1A (0.5 nM). Radioligands were purchased commercially (PerkinElmer, Boston, MA, USA). Nonspecific binding was determined using 10 µM ketanserin for 5-HT2A and serotonin for 5-HT1A. All data represent 3 experiments performed in triplicate.
Concentration-response data were fit to a single site non-linear regression model. For the HTR studies, potencies were determined from the ascending limb of the dose-response curves using ED50 potency values from [agonist] vs. response (variable slope, four parameter) least squares fit non-linear regression analyses, whereas efficacy was defined by the top output parameter or Emax from the aforementioned analyses. […] Best-fit values for ED50 and Emax from non-linear regression analyses were compared by extra sum-of-squares F tests. Mean effects for each behavioral endpoint were compared using two-way ANOVA (dose x sex), followed by Sidak’s multiple comparisons post-hoc test. Mean effects for pooled mouse behavioral data were compared via Welch’s ANOVA with Dunnett’s T3 post-hoc test, comparing all doses to saline vehicle controls (0 mg/kg). Alpha was set to 0.05 for all analyses.

C57BL/6J mice = conditions: range over Table 1 and an earlier study; ref Glatfelter et al. ([2024b]); cited from earlier work
[1] = [3H]8-OH-DPAT Binding ♀ m5-HT1A Ki, female mouse brain membranes
[2] = [3H]8-OH-DPAT Binding ♂ m5-HT1A Ki, male mouse brain membranes

| SMILES | Ki (5-HT1A; [1]) [nM] | Ki (5-HT1A; [2]) [nM] | 5-HT1A binding affinity (Ki), males and females (5-HT1A; male and female mouse brain membranes, summary statement) | s.c. ED50 doses for inducing HTR in mice (C57BL/6J mice) [mg/kg] | Ki (5-HT1A; 5-HT1A binding affinity (Ki), males and females, male and female mouse brain membranes, summary statement) [nM] |
| --- | --- | --- | --- | --- | --- |
| COc1cc(CC(C)N)c(OC)cc1I (stereo not shown) [DOI, 2,5-dimethoxy-4-iodoamphetamine] | 2650 | 2870 | µM affinity | – | – |
| CCN(CC)C(=O)[C@@H]1C=C2c3cccc4[nH]cc(c34)C[C@H]2N(C)C1 [LSD, lysergic acid diethylamide] | 0.95 | 1.02 | – | 0.035 to 0.039 | 1 to 100 |
